In patent US9364479B2, “Use of a receptor-type kinase modulator for treating polycystic kidney disease” (SYMPHONY EVOLUTION, INC., priority 2010, dated 2016):

Columns and labels:
[1] = target: T1, EphB4 (Homo sapiens, UniProt P54760); experiment: Mechanism of action study / Ki determination; assay type: biochemical
T1 construct: residues E605-E890 of human EphB4 containing a six histidine NH2-terminal tag; His6 (N); made in house; host or cells: baculovirus expression system
T1 sequence (P54760 605-890): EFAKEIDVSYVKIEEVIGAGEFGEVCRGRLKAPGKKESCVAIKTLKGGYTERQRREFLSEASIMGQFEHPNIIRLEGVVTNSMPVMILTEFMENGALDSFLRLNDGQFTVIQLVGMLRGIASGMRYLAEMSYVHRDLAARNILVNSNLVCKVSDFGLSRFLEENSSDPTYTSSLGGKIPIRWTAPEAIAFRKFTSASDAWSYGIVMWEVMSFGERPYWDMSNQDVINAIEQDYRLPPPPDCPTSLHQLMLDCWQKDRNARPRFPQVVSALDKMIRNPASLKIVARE
Procedure: Enzymatic activity was measured by standard methods after dilution of the enzyme-inhibitor complex. Activity was compared to a DMSO control treated under identical conditions.

[2] = system: Adrenergic, Alpha 2, Non-selective; experiment: NovaScreen assay; assay type: binding
[3] = system: Nicotinic (a-bungarotoxin insensitive); experiment: NovaScreen assay; assay type: binding
[4] = target: T2, GABA A, BDZ, alpha 1, Central (Homo sapiens, UniProt P14867+P18507); experiment: NovaScreen assay; assay type: binding; settings: read-out: Inhibition, 10 μM XL-647
T2 construct: NovaScreen
T2 sequence (P14867 28-456): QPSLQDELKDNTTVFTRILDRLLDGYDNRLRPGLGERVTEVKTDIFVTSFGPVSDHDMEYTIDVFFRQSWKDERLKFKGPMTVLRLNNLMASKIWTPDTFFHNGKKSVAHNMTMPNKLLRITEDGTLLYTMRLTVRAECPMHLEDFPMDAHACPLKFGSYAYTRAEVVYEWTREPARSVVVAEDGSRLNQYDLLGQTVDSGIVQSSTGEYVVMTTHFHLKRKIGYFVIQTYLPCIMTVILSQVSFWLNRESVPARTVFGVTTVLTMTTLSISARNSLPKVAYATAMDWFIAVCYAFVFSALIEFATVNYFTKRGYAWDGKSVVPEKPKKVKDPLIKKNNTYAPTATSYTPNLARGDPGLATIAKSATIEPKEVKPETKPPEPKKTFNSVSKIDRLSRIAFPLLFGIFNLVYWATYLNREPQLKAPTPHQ
T2 sequence (P18507 40-475): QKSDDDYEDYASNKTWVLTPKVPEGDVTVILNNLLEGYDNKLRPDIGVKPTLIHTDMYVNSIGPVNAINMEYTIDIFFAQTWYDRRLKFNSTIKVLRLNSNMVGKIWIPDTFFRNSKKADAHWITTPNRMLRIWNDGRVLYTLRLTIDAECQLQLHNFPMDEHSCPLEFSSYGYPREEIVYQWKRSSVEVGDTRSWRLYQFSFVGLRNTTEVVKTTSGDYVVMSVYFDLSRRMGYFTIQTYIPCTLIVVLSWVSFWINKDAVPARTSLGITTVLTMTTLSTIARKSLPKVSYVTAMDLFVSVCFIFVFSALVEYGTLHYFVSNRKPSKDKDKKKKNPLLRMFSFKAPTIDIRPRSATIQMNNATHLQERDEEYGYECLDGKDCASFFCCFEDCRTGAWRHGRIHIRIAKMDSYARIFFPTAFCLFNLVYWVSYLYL
T2 sequence (P47870 25-512 partner limits assumed): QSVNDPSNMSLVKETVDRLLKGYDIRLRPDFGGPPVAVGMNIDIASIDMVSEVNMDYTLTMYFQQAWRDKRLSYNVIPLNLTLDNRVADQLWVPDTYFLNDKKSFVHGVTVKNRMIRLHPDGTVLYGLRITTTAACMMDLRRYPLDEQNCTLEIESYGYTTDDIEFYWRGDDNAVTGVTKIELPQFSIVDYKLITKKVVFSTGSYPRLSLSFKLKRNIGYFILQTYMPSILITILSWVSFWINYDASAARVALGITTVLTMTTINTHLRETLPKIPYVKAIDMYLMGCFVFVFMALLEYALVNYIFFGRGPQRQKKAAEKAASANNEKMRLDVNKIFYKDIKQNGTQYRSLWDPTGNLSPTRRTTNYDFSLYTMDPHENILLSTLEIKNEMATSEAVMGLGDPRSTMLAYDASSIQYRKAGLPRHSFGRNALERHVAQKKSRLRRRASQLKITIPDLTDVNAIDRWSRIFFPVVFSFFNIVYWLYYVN

[5] = target: T3, Monoamine Oxidase A, Peripheral (Rattus norvegicus, UniProt P21396); experiment: NovaScreen assay; assay type: biochemical; settings: read-out: Inhibition, 10 μM XL-647
T3 construct: NovaScreen
T3 sequence (P21396 whole entry): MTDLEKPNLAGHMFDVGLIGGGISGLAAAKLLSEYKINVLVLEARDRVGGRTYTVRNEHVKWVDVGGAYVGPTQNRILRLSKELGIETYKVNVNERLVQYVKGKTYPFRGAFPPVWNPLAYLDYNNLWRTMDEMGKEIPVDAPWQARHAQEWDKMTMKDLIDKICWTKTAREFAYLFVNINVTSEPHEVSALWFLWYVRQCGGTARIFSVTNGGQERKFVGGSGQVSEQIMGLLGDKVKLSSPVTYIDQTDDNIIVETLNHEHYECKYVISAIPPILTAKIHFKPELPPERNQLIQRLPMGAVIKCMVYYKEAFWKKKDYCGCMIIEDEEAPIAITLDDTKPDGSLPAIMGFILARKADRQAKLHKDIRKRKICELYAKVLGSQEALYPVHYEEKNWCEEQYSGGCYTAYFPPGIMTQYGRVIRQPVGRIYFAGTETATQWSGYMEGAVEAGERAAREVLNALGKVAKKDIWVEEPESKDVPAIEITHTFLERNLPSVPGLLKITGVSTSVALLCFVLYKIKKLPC

[6] = target: T4, FGFR1 (Homo sapiens, UniProt P11362); experiment: AlphaScreen kinase assay; assay type: biochemical
T4 construct: cytoplasmic; GST-His6 (N); purchased ProQinase
T4 sequence (P11362 398-822 limits assumed): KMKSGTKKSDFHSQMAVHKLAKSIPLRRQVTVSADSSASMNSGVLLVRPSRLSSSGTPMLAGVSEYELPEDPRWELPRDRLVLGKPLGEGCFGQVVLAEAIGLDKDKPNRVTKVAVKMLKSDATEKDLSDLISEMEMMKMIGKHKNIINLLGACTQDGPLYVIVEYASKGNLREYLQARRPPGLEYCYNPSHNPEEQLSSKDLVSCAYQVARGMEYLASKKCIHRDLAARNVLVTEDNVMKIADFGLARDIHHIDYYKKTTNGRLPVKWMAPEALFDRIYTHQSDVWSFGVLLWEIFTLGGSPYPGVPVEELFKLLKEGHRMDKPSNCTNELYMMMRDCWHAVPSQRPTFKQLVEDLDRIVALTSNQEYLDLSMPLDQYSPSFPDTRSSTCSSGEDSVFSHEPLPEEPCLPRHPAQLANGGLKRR
Procedure: (§1) An AlphaScreen tyrosine kinase assay was used to measure ErbB2 and Flt-4 activity. Donor beads coated with streptavidin and acceptor beads coated with PY100 anti-phosphotyrosine antibody (Perkin-Elmer) were used. Biotinylated poly(Glu,Tyr) 4:1 was used as the substrate. Substrate phosphorylation was measured by luminescence following donor-acceptor bead addition followed by complex formation. Test compound, 3 μmol/L ATP, 3 nmol/L biotinylated poly(Glu,Tyr) 4:1, and 1 nmol/L ErbB2 (residues Q679-V1255 of human ErbB2, Proqinase) or Flt-4 (residues D725-R1298 of human Flt-4, Proqinase) were combined in a volume of 20 μL Assay Buffer (20 mM TrisHCl, pH 7.5, 10 mM MgCl2, 3 mM MnCl2, 1 mM DTT, 0.01% Triton) in a 384-well white, medium-binding microtiter plate (Greiner). Reaction mixtures were incubated for 1 h at room temperature. Reactions were quenched by addition of 10 μL of 15 to 30 μg/mL AlphaScreen bead suspension containing 75 mmol/L HEPES (pH 7.4), 300 mmol/L NaCl, 120 mmol/L EDTA, 0.3% bovine serum albumin, and 0.03% Tween 20. After 2 to 16 h of incubation at room temperature, plates were read using an AlphaQuest reader (Perkin-Elmer).
(§2) Further screening was performed using the biochemical assay methods of Example 2. Additional description of the components and concentrations are summarized in Table 8, Table 9, and Table 10, below.

[7] = target: T5, Fyn (Homo sapiens, UniProt P06241); experiment: AlphaScreen kinase assay; assay type: biochemical
T5 construct: His6 (N); purchased Upstate Biotechnology
T5 sequence (P06241 whole entry): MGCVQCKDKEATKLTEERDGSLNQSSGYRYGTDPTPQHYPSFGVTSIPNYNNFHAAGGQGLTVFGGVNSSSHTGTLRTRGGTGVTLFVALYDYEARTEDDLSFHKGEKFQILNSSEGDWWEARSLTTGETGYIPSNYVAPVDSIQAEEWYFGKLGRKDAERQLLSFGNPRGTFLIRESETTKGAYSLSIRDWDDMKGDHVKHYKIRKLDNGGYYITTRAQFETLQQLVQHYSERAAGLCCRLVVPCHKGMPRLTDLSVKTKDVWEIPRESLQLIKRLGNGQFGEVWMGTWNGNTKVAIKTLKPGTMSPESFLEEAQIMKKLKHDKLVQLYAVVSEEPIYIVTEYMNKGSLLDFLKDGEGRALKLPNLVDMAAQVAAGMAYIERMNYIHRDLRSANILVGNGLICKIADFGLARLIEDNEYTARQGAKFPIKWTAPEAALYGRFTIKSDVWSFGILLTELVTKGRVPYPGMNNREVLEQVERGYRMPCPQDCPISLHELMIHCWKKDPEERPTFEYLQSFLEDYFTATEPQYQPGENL
Procedure: as §1, §2

[8] = in vivo; settings: for AUC(0-t) / Cmax / half-life: po; for dosing terminated because of toxicity: 2 days
Procedure: The nonclinical Pharmacokinetics (PK) of XL-647 was studied in mice, rats, dogs, and monkeys. Animals were dosed either once or daily over several days, as described in Table 21 and 22 below. A summary of results can also be found in Tables 21 and 22 below. […] Mean tmax values were approximately 4 to 8 hours, and plasma terminal half-lives ranged from 9.41 to 20.9 hours.

[9] = target: EGFR Variant III (pTet-On/Lx-1) (Homo sapiens, UniProt P00533, DELINS30-297G); experiment: EGFR phosphorylation ELISA in transfected Lx-1 cells
Sequence of EGFR Variant III (pTet-On/Lx-1) (P00533 with tags, fused parts or gaps DELINS30-297G): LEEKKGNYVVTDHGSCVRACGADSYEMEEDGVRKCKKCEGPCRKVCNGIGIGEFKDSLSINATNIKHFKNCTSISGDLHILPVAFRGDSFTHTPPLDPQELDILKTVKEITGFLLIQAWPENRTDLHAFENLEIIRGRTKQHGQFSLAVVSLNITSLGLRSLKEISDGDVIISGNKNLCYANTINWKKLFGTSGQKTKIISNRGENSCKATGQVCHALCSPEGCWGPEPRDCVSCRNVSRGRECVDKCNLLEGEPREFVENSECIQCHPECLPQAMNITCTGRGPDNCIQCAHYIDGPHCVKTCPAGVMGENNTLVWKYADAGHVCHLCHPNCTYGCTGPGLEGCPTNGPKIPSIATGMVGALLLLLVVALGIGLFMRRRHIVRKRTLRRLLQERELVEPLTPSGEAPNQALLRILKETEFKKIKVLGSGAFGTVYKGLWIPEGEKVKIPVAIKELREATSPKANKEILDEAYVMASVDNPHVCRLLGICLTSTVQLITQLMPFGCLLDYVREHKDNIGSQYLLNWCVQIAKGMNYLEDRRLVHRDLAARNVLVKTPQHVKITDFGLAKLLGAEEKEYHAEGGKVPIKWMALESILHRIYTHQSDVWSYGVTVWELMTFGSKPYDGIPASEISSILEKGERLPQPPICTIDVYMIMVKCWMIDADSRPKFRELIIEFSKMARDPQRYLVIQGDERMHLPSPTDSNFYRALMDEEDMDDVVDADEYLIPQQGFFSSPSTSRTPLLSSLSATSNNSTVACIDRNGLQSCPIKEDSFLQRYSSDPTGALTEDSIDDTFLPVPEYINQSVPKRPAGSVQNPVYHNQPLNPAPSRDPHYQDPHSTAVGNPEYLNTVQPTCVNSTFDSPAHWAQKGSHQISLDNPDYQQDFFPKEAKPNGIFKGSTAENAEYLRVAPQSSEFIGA
Excerpt: Lx-1 cells were used because they lack background EGFR activity. A clone corresponding to the longest EGFR isoform (Genbank accession no. NM_005228.3/NP_005219.2 #21-176, Upstate Biotechnology) was used as a template to produce two mutant EGFR genes (coding for L858R and L861Q) by site-directed mutagenesis. The WT and the two sequence-verified mutants were transferred to a COOH-terminal Flag-tagged retroviral cytomegalovirus promoter-driven mammalian expression vector. The two Tet-On expression vectors, EGFR WT (Tet-On) and EGFRvIII (Tet-On), which were COOH-terminally Flag tagged, were generously provided by Dr. Abhijit Guha (University of Toronto, Toronto, Ontario, Canada).
Transient transfections of Lx-1 cells were done using Lipofectamine 2000 (Invitrogen) according to the manufacturer's protocol. For transfections of the WT, L858R, and L861Q constructs, 1 μg plasmid DNA was used for each transfection (each well of a 12-well plate). […]
For the EGFR phosphorylation ELISA, Reacti-Bind streptavidin-coated plates (Pierce) were coated with 2 μg/mL biotin-conjugated anti-Flag antibody (Sigma). […] Horseradish peroxidase activity was determined by reading the plates in a Victor2 plate reader following addition of the ELISA Femto substrate.

In the case of `COc1cc2c(Nc3ccc(Cl)c(Cl)c3F)ncnc2cc1OC[C@@H]1C[C@@H]2CN(C)C[C@@H]2C1` [XL-647, N-(3,4-dichloro-2-fluorophenyl)-7-({[(3aR,5r,6aS)-2-methyloctahydrocyclopenta[c]pyrrol-5-yl]methyl}oxy)-6-(methyloxy)quinazolin-4-amine], the ATP-Competitive [1] is reported as “Yes”, the Ki [1] is reported as 1 nM and the Reversible [1] is reported as “Yes”. For the same molecule, the IC50 [2] was 1800 nM, the “Inhibition, 10 μM XL-647” value ([2]; 10 μM) was 84.56% and the “Inhibition, 10 μM XL-647” value [3] was 53.97%. The inhibition at 10 µM [4] was 7.34%, the inhibition at 10 µM [5] was 1.66% and the IC50 [6] was 855 ± 96.3 nM. It also gave an IC50 [7] of 41 ± 8.1 nM, an AUC(0-t) ([8]; female, dog, 100 mg/kg) of 21200 ng·h/mL and a Cmax ([8]; female, dog, 100 mg/kg) of 1100 ng/mL. For the same molecule, the half-life ([8]; female, dog, 100 mg/kg) was 14.2 h, the AUC(0-t) ([8]; female, dog, 300 mg/kg) was 17100 ng·h/mL and the Cmax ([8]; female, dog, 300 mg/kg) was 1610 ng/mL. It also gave a half-life ([8]; female, dog, 300 mg/kg) of 12.1 h, an AUC(0-t) ([8]; female, dog, 1000 mg/kg) of 34200 ng·h/mL and a Cmax ([8]; female, dog, 1000 mg/kg) of 5090 ng/mL. It also gave a half-life ([8]; female, dog, 1000 mg/kg) of 16.1 h, an AUC(0-t) ([8]; female, monkey, 2 mg/kg) of 450 ng·h/mL and a Cmax ([8]; female, monkey, 2 mg/kg) of 38 ng/mL. The AUC(0-t) ([8]; female, monkey, 6 mg/kg) was 1690 ng·h/mL, the Cmax ([8]; female, monkey, 6 mg/kg) was 116 ng/mL and the AUC(0-t) ([8]; female, monkey, 10 mg/kg) was 4270 ng·h/mL. For the same molecule, the Cmax ([8]; female, monkey, 10 mg/kg) was 216 ng/mL, the half-life ([8]; female, monkey, 10 mg/kg) was 14.9 h and the AUC(0-t) ([8]; female, monkey, 20 mg/kg) was 3910 ng·h/mL. For the same molecule, the Cmax ([8]; female, monkey, 20 mg/kg) was 202 ng/mL, the half-life ([8]; female, monkey, 50 mg/kg) was 14.8 h and the AUC(0-t) ([8]; female, monkey, 100 mg/kg) was 28000 ng·h/mL. For the same molecule, the Cmax ([8]; female, monkey, 100 mg/kg) was 2160 ng/mL, the half-life ([8]; female, monkey, 100 mg/kg) was 11.6 h and the AUC(0-t) ([8]; female, monkey, 150 mg/kg) was 7030 ng·h/mL. For the same molecule, the Cmax ([8]; female, monkey, 150 mg/kg) was 379 ng/mL, the half-life ([8]; female, monkey, 150 mg/kg) was 20.4 h and the AUC(0-t) ([8]; male, dog, 100 mg/kg) was 8970 ng·h/mL. For the same molecule, the Cmax ([8]; male, dog, 100 mg/kg) was 407 ng/mL, the half-life ([8]; male, dog, 100 mg/kg) was 10.4 h and the AUC(0-t) ([8]; male, dog, 300 mg/kg) was 7790 ng·h/mL. For the same molecule, the Cmax ([8]; male, dog, 300 mg/kg) was 936 ng/mL, the half-life ([8]; male, dog, 300 mg/kg) was 12.7 h and the AUC(0-t) ([8]; male, dog, 1000 mg/kg) was 27300 ng·h/mL. For the same molecule, the Cmax ([8]; male, dog, 1000 mg/kg) was 3770 ng/mL, the half-life ([8]; male, dog, 1000 mg/kg) was 13.2 h and the AUC(0-t) ([8]; male, monkey, 2 mg/kg) was 488 ng·h/mL. For the same molecule, the Cmax ([8]; male, monkey, 2 mg/kg) was 28.4 ng/mL, the AUC(0-t) ([8]; male, monkey, 6 mg/kg) was 1860 ng·h/mL and the Cmax ([8]; male, monkey, 6 mg/kg) was 106 ng/mL. For the same molecule, the AUC(0-t) ([8]; male, monkey, 10 mg/kg) was 3630 ng·h/mL, the Cmax ([8]; male, monkey, 10 mg/kg) was 230 ng/mL and the half-life ([8]; male, monkey, 10 mg/kg) was 14.7 h. For the same molecule, the AUC(0-t) ([8]; male, monkey, 20 mg/kg) was 3900 ng·h/mL, the Cmax ([8]; male, monkey, 20 mg/kg) was 194 ng/mL and the half-life ([8]; male, monkey, 50 mg/kg) was 20.5 h. For the same molecule, the AUC(0-t) ([8]; male, monkey, 100 mg/kg) was 19600 ng·h/mL, the Cmax ([8]; male, monkey, 100 mg/kg) was 1220 ng/mL and the half-life ([8]; male, monkey, 100 mg/kg) was 20.7 h. For the same molecule, the AUC(0-t) ([8]; male, monkey, 150 mg/kg) was 14500 ng·h/mL, the Cmax ([8]; male, monkey, 150 mg/kg) was 737 ng/mL and the half-life ([8]; male, monkey, 150 mg/kg) was 19.8 h. For the same molecule, the “dosing terminated because of toxicity observed on Days 6 and 7” value ([8]; monkey, 20 mg/kg) was “then terminated because”, the “dosing terminated because of toxicity” value ([8]; monkey, 50 mg/kg) was “bid × 2, then terminated” and the “dosing terminated because of toxicity” value ([8]; monkey, 100 mg/kg) was “qd × 2, then terminated”. The “dosing terminated because of toxicity” value ([8]; monkey, 300 mg/kg) was “qd × 2, then terminated”, the AUC(0-t) ([8]; rat, 1 mg/kg) was 198 ng·h/mL and the Cmax ([8]; rat, 1 mg/kg) was 12.7 ng/mL. For the same molecule, the half-life ([8]; rat, 1 mg/kg) was 14.4 h, the AUC(0-t) ([8]; rat, 3 mg/kg) was 776 ng·h/mL and the Cmax ([8]; rat, 3 mg/kg) was 50.4 ng/mL. For the same molecule, the half-life ([8]; rat, 3 mg/kg) was 20.4 h, the AUC(0-t) ([8]; rat, 30 mg/kg) was 5740 ng·h/mL and the Cmax ([8]; rat, 30 mg/kg) was 319 ng/mL. It also gave a half-life ([8]; rat, 30 mg/kg) of 20.4 h, an AUC(0-t) ([8]; rat, 100 mg/kg) of 18300 ng·h/mL and a Cmax ([8]; rat, 100 mg/kg) of 909 ng/mL. It also gave an AUC(0-t) ([8]; rat, 200 mg/kg) of 29500 ng·h/mL, a Cmax ([8]; rat, 200 mg/kg) of 1000 ng/mL and an AUC(0-t) ([8]; rat, 600 mg/kg) of 41200 ng·h/mL. It also gave a Cmax ([8]; rat, 600 mg/kg) of 1330 ng/mL, an AUC(0-t) ([8]; rat, 2000 mg/kg) of 53000 ng·h/mL and a Cmax ([8]; rat, 2000 mg/kg) of 1690 ng/mL. The IC50 [9] was 74 nM.
